Earlier results in patent US9066953B2, “Methods for increasing endurance and fat metabolism in humans” (Quality IP Holdings, LLC, priority 2012, dated 2015).

Experiments:
hGH = details: for effect on hGH: other amino acids, literature
GH = details: subcutaneous injection of 0.06 IU, GH deficient subjects

Molecule | effect on hGH (hGH) | other results
N=C(N)NCCC[C@H](N)C(=O)O [arginine] |  | elevation of serum hGH levels (hGH; 30 g intravenous, in males): 8.6 fold; increase of hGH levels (hGH; intravenous infusion of 183 mg/kg body weight in females): > 20 fold
N[C@@H](Cc1c[nH]cn1)C(=O)O [histidine] | marked increases in hGH | 
NCCCC[C@H](N)C(=O)O [lysine] | marked increases in hGH | 
CSCC[C@H](N)C(=O)O [methionine] | marked increases in hGH | 
NCCC[C@H](N)C(=O)O [ornithine] | marked increases in hGH | 
N[C@@H](Cc1ccccc1)C(=O)O [phenylalanine] | marked increases in hGH | 
HGH: injected human growth hormone used in the treatment of GH deficient subjects |  | mean levels of GH reached (GH): 0.4 ng/mL
